Results from ChEMBL document CHEMBL1144449, “Design, synthesis, and evaluation of orally active 4-(2,4-difluoro-5-(methoxycarbamoyl)phenylamino)pyrrolo[2,1-f][1,2,4]triazines as dual vascular endothelial growth factor receptor-2 and fibroblast growth factor receptor-1 inhibitors” (J Med Chem, 2005).

Assays:
[1] = target: Vascular endothelial growth factor receptor 2 (Homo sapiens, UniProt P35968); assay: Inhibition of human vascular endothelial growth factor receptor 2 kinase activity
[2] = target: Fibroblast growth factor receptor 1 (Homo sapiens, UniProt P11362); assay: Inhibition of human fibroblast growth factor receptor 1
[3] = target: Fibroblast growth factor receptor (Homo sapiens, UniProt P22607+P11362+P22455+P21802); assay: Inhibition of FGF-stimulated human umbilical vein endothelial cell proliferation; type: functional, cell-based
[4] = target: Vascular endothelial growth factor receptor (Homo sapiens, UniProt P17948+P35916+P35968); assay: Inhibition of VEGF-stimulated human umbilical vein endothelial cell proliferation; type: functional, cell-based
[5] = Plasma level after 1 hour of oral administration of 50 mg/kg compound in mouse; type: ADME, organism-based; set-up: dose 50 mg/kg, route oral; details: read-out: Plasma level
[6] = Plasma level after 4 hours of oral administration of 50 mg/kg compound in mouse; type: ADME, organism-based; set-up: dose 50 mg/kg, route oral; details: read-out: Plasma level
[7] = target: Cyclin-dependent kinase 2 (Homo sapiens, UniProt P24941); assay: Inhibition of human cyclin-dependent kinase 2
[8] = target: Protein kinase C alpha type (Homo sapiens, UniProt P17252); assay: Inhibition of human protein kinase C alpha
[9] = target: Platelet-derived growth factor receptor beta (Homo sapiens, UniProt P09619); assay: Inhibition of human platelet-derived growth factor receptor beta
[10] = target: Receptor tyrosine-protein kinase erbB-2 (Homo sapiens, UniProt P04626); assay: Inhibition against human HER2 kinase
[11] = target: Insulin-like growth factor 1 receptor (Homo sapiens, UniProt P08069); assay: Inhibition of human insulin-like growth factor I receptor
Cytochrome P450 1A2 = target: T1, Cytochrome P450 1A2 (Homo sapiens, UniProt P05177); assay: Inhibitory concentration against human cytochrome P450 1A2; type: ADME
T1 sequence (P05177 whole entry): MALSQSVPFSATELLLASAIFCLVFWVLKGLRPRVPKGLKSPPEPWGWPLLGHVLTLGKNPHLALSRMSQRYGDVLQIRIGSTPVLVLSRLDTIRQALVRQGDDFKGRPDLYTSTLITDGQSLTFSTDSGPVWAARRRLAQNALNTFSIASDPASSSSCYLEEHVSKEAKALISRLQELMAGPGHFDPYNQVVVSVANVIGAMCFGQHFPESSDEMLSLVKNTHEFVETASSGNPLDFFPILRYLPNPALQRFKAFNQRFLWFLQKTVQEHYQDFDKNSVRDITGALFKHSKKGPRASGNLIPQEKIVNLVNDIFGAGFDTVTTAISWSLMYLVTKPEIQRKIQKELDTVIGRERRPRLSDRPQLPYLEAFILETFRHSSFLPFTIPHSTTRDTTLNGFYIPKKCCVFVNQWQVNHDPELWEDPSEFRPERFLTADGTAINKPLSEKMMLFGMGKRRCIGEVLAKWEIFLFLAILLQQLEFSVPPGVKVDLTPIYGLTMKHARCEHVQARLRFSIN

Cytochrome P450 2C9 = Cytochrome P450 2C9 (Homo sapiens, UniProt P11712); assay: Inhibitory concentration against human cytochrome P450 2C9; type: ADME
Cytochrome P450 3A4 = Cytochrome P450 3A4 (Homo sapiens, UniProt P08684); assay: Inhibitory concentration against human cytochrome P450 3A4; type: ADME
Mus musculus [12] = assay: Tumor growth inhibition of L2987 human lung carcinoma xenografts implanted subcutaneously in athymic mouse after oral administration of 50 mg/kg/day; type: functional; details: read-out: TGI
[13] = Mean residence time determined after administration of 5 mg/kg dose iv in mouse; type: ADME, organism-based; set-up: dose 5 mg/kg, route intravenous; details: in vivo
[14] = Maximum plasma concentration determined after administration of 10 mg/kg dose po in mouse; type: ADME, organism-based; set-up: dose 10 mg/kg, route oral
[15] = Systemic plasma clearance determined after administration of 5 mg/kg dose iv in mouse; type: ADME, organism-based; set-up: dose 5 mg/kg, route intravenous
[16] = Mean residence time determined after administration of 10 mg/kg dose po in mouse; type: ADME, organism-based; set-up: dose 10 mg/kg, route oral; details: in vivo
[17] = Area under curve determined after administration of 5 mg/kg dose iv in mouse; type: ADME, organism-based; set-up: dose 5 mg/kg, route intravenous; details: in vivo
[18] = Half-life determined after administration of 10 mg/kg dose po in mouse; type: ADME, organism-based; set-up: dose 10 mg/kg, route oral; details: in vivo
[19] = Plasma level after 4 hours of oral administration of 10 mg/kg compound in mouse
[20] = Half-life determined after administration of 5 mg/kg dose iv in mouse; type: ADME, organism-based; set-up: dose 5 mg/kg, route intravenous; details: in vivo
[21] = target: Tyrosine-protein kinase Lck (Homo sapiens, UniProt P06239); assay: Inhibition of human p56 lck tyrosine kinase
[22] = Oral bioavailability determined after administration of 10 mg/kg dose po in mouse; type: ADME, organism-based; details: in vivo
Mus musculus [23] = assay: Tumor growth inhibition of L2987 human lung carcinoma xenografts implanted subcutaneously in athymic mouse after oral administration of 150 mg/kg/day; type: functional; details: read-out: TGI
[24] = Maximum plasma concentration determined after administration of 5 mg/kg dose iv in mouse; type: ADME, organism-based; set-up: dose 5 mg/kg, route intravenous
[25] = Plasma level after 1 hour of oral administration of 10 mg/kg compound in mouse
[26] = Steady-state volume of distribution determined after administration of 5 mg/kg dose iv in mouse; type: ADME, organism-based; set-up: dose 5 mg/kg, route intravenous; details: in vivo, read-out: Vss
[27] = Area under curve determined after administration of 10 mg/kg dose po in mouse; type: ADME, organism-based; set-up: dose 10 mg/kg, route oral; details: in vivo
[28] = Total time required to reach maximum plasma concentration after administration of 10 mg/kg dose po in mouse; type: ADME, organism-based; set-up: dose 10 mg/kg, route oral
Mus musculus [29] = assay: Tumor growth inhibition of L2987 human lung carcinoma xenografts implanted subcutaneously in athymic mouse after oral administration of 100 mg/kg/day; type: functional; details: read-out: TGI

Vascular endothelial growth factor receptor 2, sequence (P35968 whole entry): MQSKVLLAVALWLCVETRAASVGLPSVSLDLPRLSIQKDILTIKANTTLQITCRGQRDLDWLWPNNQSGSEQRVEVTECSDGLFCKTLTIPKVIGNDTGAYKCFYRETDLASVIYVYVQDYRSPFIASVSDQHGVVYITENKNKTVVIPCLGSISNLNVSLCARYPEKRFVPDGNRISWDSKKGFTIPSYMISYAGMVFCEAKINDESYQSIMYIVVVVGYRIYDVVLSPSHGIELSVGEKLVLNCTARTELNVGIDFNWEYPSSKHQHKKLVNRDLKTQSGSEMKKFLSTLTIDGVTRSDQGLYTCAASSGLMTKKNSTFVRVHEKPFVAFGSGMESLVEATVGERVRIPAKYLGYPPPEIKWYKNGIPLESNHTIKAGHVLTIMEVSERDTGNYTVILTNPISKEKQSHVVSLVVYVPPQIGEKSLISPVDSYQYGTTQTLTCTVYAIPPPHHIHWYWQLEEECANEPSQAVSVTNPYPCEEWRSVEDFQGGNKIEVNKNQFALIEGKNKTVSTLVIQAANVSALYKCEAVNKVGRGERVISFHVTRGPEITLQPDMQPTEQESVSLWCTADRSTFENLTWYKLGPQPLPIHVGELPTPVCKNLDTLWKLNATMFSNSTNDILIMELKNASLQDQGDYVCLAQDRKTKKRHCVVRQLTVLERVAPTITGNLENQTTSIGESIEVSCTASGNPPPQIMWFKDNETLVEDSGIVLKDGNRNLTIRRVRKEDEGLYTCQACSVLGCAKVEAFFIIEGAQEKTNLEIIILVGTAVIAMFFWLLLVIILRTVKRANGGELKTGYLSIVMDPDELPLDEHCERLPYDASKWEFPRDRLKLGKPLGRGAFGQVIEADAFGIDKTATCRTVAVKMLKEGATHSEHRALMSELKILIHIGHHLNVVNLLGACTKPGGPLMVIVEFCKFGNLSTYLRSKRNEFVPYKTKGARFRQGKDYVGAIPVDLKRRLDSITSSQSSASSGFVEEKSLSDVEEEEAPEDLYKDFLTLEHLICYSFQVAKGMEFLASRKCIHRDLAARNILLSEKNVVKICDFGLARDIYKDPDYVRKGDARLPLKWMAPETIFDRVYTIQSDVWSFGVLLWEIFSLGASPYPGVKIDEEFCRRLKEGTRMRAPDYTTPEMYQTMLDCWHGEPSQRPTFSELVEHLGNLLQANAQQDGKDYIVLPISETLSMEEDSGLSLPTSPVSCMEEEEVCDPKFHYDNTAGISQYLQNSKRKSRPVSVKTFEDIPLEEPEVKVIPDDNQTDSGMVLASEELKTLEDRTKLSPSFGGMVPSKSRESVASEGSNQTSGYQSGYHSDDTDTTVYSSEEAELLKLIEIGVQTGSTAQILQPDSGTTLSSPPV
Fibroblast growth factor receptor 1, sequence (P11362 whole entry): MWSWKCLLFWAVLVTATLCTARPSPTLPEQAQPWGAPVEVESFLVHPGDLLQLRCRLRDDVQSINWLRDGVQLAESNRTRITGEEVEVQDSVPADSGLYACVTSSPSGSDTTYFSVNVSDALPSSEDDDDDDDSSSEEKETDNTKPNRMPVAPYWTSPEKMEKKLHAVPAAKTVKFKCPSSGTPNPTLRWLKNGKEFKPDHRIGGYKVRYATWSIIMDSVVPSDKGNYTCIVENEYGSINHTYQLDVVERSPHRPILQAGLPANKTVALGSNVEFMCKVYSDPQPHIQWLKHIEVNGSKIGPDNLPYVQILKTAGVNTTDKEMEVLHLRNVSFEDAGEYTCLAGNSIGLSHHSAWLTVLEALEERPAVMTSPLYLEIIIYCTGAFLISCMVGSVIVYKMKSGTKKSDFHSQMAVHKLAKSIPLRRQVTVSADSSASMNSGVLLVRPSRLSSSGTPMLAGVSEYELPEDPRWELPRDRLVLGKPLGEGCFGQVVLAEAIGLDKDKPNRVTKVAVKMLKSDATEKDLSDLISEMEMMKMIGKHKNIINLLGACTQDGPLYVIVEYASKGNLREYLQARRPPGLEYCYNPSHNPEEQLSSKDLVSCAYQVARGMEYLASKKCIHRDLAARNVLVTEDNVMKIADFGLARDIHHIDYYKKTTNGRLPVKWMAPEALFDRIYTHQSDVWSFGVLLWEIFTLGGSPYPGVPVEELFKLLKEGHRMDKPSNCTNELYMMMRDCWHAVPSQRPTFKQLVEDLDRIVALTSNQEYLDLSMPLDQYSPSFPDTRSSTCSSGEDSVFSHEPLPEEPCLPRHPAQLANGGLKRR
Receptor tyrosine-protein kinase erbB-2, sequence (P04626 whole entry): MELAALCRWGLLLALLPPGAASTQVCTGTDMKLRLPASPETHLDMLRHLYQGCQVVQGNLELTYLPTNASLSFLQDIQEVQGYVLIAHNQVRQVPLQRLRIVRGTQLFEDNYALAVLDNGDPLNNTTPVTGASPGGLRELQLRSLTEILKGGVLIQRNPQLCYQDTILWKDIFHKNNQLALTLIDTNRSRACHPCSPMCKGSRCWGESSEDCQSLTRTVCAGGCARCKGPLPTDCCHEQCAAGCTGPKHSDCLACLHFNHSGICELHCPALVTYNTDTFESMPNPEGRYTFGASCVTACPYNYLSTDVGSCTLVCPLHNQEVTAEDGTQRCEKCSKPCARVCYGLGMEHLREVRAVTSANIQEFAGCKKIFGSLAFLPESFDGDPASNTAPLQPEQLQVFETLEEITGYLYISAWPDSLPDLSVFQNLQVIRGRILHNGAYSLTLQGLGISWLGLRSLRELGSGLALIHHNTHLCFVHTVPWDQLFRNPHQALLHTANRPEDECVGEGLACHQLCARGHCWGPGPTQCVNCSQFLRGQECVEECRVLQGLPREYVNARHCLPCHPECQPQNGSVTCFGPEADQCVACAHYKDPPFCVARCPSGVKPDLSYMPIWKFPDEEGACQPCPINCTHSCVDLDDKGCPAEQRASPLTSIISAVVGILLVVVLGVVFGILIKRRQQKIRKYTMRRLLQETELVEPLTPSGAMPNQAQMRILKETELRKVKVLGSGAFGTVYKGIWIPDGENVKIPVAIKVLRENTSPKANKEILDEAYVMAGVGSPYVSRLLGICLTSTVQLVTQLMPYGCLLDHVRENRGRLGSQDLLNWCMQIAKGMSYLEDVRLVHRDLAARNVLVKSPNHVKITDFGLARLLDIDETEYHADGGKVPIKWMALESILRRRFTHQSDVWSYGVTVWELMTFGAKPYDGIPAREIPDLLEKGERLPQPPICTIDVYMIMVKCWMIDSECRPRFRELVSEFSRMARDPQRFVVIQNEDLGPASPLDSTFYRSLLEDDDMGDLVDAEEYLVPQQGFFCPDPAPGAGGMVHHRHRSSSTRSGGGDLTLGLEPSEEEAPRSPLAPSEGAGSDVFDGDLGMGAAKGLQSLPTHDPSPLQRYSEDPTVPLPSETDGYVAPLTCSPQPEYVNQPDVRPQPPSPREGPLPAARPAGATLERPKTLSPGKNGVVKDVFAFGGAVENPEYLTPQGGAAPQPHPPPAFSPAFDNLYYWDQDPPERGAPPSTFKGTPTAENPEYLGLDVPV
Cytochrome P450 3A4, sequence (P08684 whole entry): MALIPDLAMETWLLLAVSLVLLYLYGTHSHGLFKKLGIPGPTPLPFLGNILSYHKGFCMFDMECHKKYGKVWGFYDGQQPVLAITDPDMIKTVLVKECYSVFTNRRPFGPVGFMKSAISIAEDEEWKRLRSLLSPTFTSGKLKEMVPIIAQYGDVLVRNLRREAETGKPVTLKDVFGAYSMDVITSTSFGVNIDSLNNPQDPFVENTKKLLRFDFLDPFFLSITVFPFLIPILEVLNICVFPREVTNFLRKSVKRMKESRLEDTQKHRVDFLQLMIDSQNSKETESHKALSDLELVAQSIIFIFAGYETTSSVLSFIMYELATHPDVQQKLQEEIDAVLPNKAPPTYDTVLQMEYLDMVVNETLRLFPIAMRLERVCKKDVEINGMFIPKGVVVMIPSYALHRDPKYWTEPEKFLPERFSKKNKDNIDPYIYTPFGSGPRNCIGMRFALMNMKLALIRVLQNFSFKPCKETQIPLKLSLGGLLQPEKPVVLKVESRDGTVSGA
Cytochrome P450 2C9, sequence (P11712 whole entry): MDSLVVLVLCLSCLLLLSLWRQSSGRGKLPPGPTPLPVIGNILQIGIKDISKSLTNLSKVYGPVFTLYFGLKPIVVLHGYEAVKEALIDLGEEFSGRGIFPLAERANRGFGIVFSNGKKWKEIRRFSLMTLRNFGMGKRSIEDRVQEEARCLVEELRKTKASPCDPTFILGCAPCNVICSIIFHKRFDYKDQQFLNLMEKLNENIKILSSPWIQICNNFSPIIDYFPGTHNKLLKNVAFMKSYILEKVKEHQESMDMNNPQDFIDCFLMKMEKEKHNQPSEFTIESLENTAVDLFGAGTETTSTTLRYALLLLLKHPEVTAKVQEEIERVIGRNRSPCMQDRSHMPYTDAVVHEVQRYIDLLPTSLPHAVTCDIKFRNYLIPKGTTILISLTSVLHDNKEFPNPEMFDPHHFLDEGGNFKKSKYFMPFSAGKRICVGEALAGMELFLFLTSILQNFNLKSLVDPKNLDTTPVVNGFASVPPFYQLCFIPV

CONC(=O)c1cc(Nc2ncnn3cc(-c4nnc(CN(C)C)o4)c(C(C)C)c23)c(F)cc1F
IC50 [1]: 66 nM | IC50 [2]: 149 nM

CONC(=O)c1cc(Nc2ncnn3cc(NC(=O)OCc4ccccc4)c(C(C)C)c23)c(F)cc1F
IC50 [1]: 180 nM

CONC(=O)c1cc(Nc2ncnn3cc(-c4nnc(C(C)C)o4)c(C(C)C)c23)c(F)cc1F
IC50 [3]: 1 nM | IC50 [4]: 18 nM | IC50 [1]: 22 nM | IC50 [2]: 39 nM

CONC(=O)c1cc(Nc2ncnn3cc(-c4noc(C)n4)c(C(C)C)c23)c(F)cc1F
IC50 [1]: 110 nM | IC50 [2]: 140 nM

CONC(=O)c1cc(Nc2ncnn3cc(NC(=O)OC4CCN(C)CC4)c(C(C)C)c23)c(F)cc1F
concentration at 1 h [5]: 5.1 µM | IC50 [4]: 19 nM | concentration at 4 h [6]: 3 µM | IC50 [1]: 36 nM

CCOC(=O)c1cn2ncnc(Oc3cccc(C(=O)NOC)c3)c2c1C(C)C
IC50 [1]: 270 nM

CONC(=O)c1cc(Nc2ncnn3cc(-c4nnc(C)o4)c(C(C)C)c23)c(F)cc1F
IC50 [3]: 6.5 nM | concentration at 1 h [5]: 132 µM | IC50 [7]: > 50000 nM | concentration at 4 h [6]: 37.7 µM | IC50 [8]: > 50000 nM | IC50 [9]: > 2000 nM | IC50 [10]: 8000 nM | IC50 [2]: 19 nM | IC50 [11]: > 25000 nM

CONC(=O)c1cc(Nc2ncnn3cc(NC(=O)OCC4CCCO4)c(C(C)C)c23)c(F)cc1F (stereo unspecified)
concentration at 1 h [5]: 29.5 µM | IC50 [7]: > 50000 nM | concentration at 4 h [6]: 2.9 µM | IC50 [8]: > 50000 nM | IC50 [10]: > 10000 nM | IC50 [11]: > 25000 nM

CONC(=O)c1cc(Nc2ncnn3cc(-c4n[nH]c(C)n4)c(C(C)C)c23)c(F)cc1F
IC50 [3]: 46 nM | IC50 [4]: 50 nM | IC50 [1]: 71 nM | IC50 [2]: 50 nM

CONC(=O)c1cc(Nc2ncnn3cc(-c4ncc(C)o4)c(C(C)C)c23)c(F)cc1F
IC50 [3]: 4 nM | IC50 (Cytochrome P450 1A2): 64 nM | IC50 [4]: 1.1 nM | IC50 [1]: 8 nM | IC50 [2]: 20 nM | IC50 (Cytochrome P450 2C9): 3600 nM | IC50 (Cytochrome P450 3A4): 5100 nM

CCOC(=O)c1cn2ncnc(Nc3cc(C(=O)NOC)c(F)cc3F)c2c1C(C)C
IC50 [1]: 13 nM

CCOC(=O)c1cn2ncnc(Nc3cc(C(=O)NOC(C)C)c(F)cc3F)c2c1C(C)C
IC50 [1]: 350 nM

CONC(=O)c1cc(Nc2ncnn3cc(-c4nnc(C(F)(F)F)o4)c(C(C)C)c23)c(F)cc1F
IC50 [3]: 33 nM | IC50 [4]: 35 nM | IC50 [1]: 76 nM | IC50 [2]: 84 nM

CONC(=O)c1cc(Nc2ncnn3cc(-c4nnc(C(F)(F)S(C)(=O)=O)o4)c(C(C)C)c23)c(F)cc1F
inhibition in vivo at 50 mg/kg/day (Mus musculus [12]): 63.9% | IC50 [3]: 130 nM | MRT [13]: 4.9 h | Cmax [14]: 27.7 µM | clearance [15]: 1.53 mL/min/kg | IC50 [7]: > 50000 nM | MRT [16]: 5.2 h | AUC [17]: 97.4 µM·h | IC50 [8]: > 50000 nM | half-life [18]: 3.6 h | concentration at 4 h [19]: 13.8 µM | IC50 [10]: > 25000 nM | half-life [20]: 2.5 h | IC50 [21]: 7800 nM | bioavailability [22]: 79% | IC50 [2]: 220 nM | inhibition in vivo at 150 mg/kg/day (Mus musculus [23]): 94.2% | Cmax [24]: 23.7 µM | concentration at 1 h [25]: 26.6 µM | Vd [26]: 0.45 L/kg | AUC [27]: 155 µM·h | Tmax [28]: 0.5 h | inhibition in vivo at 100 mg/kg/day (Mus musculus [29]): 87.5%

CONC(=O)c1cc(Nc2ncnn3cc(-c4nnco4)c(C(C)C)c23)c(F)cc1F
IC50 [3]: 54 nM | IC50 [4]: 91 nM | IC50 [1]: 77 nM | IC50 [2]: 160 nM

CCOC(=O)Nc1cn2ncnc(Nc3cc(C(=O)NOC)c(F)cc3F)c2c1C(C)C
IC50 [4]: 31 nM | IC50 [1]: 66 nM

CCOC(=O)c1cn2ncnc(Nc3cc(C(=O)NOC)ccc3F)c2c1C(C)C
IC50 [1]: 34 nM
